Data reported in ChEMBL document CHEMBL2396625 (Bioorg Med Chem Lett, 2013).
Calls of active or inactive are those of the source. The calls are words filed in the database; no cut-off is given here.

Key:
[1] = molecular target: T1, Protein tyrosine phosphatase type IVA 3 (Homo sapiens, UniProt O75365); assay: Inhibition of human His6-tagged full length PRL3 assessed as inhibition of DiFMUP dephosphorylation at 5 ug/ml relative to control
DLD-1 [2] = assay: Antimigratory activity against human DLD1 cells overexpressing PRL3 at 20 uM after 20 hrs by crystal violet staining-based light microscopic analysis relative to control; type: functional; details: DLD-1, 20 h
[3] = molecular target: T1, Protein tyrosine phosphatase type IVA 3; assay: Inhibition of human His6-tagged full length PRL3 assessed as inhibition of DiFMUP dephosphorylation
[4] = molecular target: T1, Protein tyrosine phosphatase type IVA 3; assay: Inhibition of PRL3 in human DLD1 cells assessed as increase in phospho-KRT8 level at 10 to 20 uM by immunoblot analysis; type: cell-based; details: DLD-1
[5] = molecular target: Dual specificity protein phosphatase 3 (Homo sapiens) (UniProt P51452); assay: Inhibition of VHR (unknown origin) using DiFMUP as substrate at 5 uM relative to control
Dual specificity protein phosphatase 3 (Homo sapiens), sequence (P51452 whole entry, looked up): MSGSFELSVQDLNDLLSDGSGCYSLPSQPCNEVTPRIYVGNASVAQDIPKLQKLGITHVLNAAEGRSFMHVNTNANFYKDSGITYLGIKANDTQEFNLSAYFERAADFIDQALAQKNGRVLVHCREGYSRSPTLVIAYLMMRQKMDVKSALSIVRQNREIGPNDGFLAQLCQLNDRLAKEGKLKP

DLD-1 [6] = assay: Antimigratory activity against human DLD1 cells overexpressing PRL3 by crystal violet staining-based light microscopic analysis; type: functional, cell-based
DLD-1 [7] = assay: Antimigratory activity against human DLD1 cells overexpressing PRL3 at 10 uM after 20 hrs by crystal violet staining-based light microscopic analysis; type: functional, cell-based
[8] = molecular target: T1, Protein tyrosine phosphatase type IVA 3; assay: Inhibition of PRL3 in human DLD1 cells assessed as increase in phospho-ezrin level at 20 uM by immunoblot analysis relative to control; type: cell-based; details: DLD-1
[9] = molecular target: T2, Tyrosine-protein phosphatase non-receptor type 1 (Homo sapiens) (UniProt P18031); assay: Inhibition of PTP1B (unknown origin) using DiFMUP as substrate at 5 uM relative to control
T2 sequence (whole entry): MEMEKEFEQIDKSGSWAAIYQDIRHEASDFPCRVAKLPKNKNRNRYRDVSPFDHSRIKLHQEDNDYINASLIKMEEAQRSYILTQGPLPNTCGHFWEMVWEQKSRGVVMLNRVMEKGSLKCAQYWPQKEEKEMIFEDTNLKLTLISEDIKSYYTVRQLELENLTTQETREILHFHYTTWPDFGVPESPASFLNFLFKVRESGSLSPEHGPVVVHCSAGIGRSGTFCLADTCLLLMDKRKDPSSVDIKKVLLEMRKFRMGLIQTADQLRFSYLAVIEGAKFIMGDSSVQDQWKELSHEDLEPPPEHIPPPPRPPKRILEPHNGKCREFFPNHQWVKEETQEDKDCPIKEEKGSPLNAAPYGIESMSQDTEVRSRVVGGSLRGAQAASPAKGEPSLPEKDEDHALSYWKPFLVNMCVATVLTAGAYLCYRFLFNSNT

[10] = molecular target: T3, Dual specificity protein phosphatase 22 (Homo sapiens) (UniProt Q9NRW4); assay: Inhibition of DUSP22 (unknown origin) using DiFMUP as substrate at 5 uM relative to control
T3 sequence (whole entry): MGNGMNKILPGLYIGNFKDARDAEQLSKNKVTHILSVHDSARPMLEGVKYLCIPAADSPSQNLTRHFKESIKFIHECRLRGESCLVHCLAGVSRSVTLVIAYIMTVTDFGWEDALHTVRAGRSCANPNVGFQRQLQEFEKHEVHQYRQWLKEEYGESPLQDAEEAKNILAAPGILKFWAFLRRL

DLD-1 [11] = assay: Antimigratory activity against human DLD1 cells overexpressing PRL3 at 10 ug/ml after 20 hrs by crystal violet staining-based light microscopic analysis relative to control; type: functional; details: DLD-1, 20 h
DLD-1 [12] = assay: Antiinvasive activity against human DLD1 cells overexpressing PRL3 assessed as increase in E-cadherin expression at 10 to 50 uM after 24 hrs by immunoblot analysis; type: functional, cell-based
[13] = molecular target: T1, Protein tyrosine phosphatase type IVA 3; assay: Inhibition of His6-tagged full length human PRL3 using DiFMUP as substrate at 5 uM relative to control
DLD-1 [14] = assay: Antiinvasive activity against human DLD1 cells overexpressing PRL3 assessed as decrease in snail expression at […] after 24 hrs by immunoblot analysis; type: functional, cell-based
[15] = molecular target: T4, Tyrosine-protein phosphatase non-receptor type 2 (Homo sapiens) (UniProt P17706); assay: Inhibition of TCPTP (unknown origin) using DiFMUP as substrate at 5 uM relative to control
T4 sequence (whole entry): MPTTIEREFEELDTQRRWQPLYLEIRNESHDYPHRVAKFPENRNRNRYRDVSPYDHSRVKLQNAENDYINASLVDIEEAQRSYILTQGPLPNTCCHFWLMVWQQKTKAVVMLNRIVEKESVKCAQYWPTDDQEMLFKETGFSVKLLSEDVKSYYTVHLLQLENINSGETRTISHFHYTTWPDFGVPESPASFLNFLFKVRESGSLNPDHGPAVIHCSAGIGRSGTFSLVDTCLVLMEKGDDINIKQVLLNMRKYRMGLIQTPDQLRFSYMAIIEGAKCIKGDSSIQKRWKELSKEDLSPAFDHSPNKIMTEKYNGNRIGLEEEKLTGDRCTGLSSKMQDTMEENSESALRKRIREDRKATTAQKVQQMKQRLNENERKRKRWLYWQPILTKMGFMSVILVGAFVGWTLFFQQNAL

DU-145 = assay: Antimigratory activity against human DU145 cells expressing low level of PRL3 at 10 to 20 uM after 20 hrs by crystal violet staining-based light microscopic analysis; type: functional, cell-based
[16] = molecular target: T5, Tyrosine-protein phosphatase non-receptor type 11 (Homo sapiens) (UniProt Q06124); assay: Inhibition of SHP2 (unknown origin) using DiFMUP as substrate at 5 uM relative to control
T5 sequence (whole entry): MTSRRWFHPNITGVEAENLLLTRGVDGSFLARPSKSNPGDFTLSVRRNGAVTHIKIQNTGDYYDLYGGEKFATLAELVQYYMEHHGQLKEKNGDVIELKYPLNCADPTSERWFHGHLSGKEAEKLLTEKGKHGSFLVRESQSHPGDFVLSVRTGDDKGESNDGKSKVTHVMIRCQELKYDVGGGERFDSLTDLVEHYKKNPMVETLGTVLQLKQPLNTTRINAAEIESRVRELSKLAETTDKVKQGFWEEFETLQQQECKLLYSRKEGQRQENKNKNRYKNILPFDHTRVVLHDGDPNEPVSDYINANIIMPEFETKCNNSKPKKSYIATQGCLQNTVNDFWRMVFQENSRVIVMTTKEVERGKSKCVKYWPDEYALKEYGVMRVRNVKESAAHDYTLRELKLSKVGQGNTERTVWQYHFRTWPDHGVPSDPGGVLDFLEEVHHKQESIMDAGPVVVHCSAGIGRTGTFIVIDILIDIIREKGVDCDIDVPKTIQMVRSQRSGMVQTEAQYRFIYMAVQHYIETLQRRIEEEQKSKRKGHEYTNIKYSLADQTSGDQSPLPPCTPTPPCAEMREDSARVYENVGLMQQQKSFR

MDA-MB-231 = assay: Antimigratory activity against human MDA-MB-231 cells expressing low level of PRL3 at 10 to 20 uM after 20 hrs by crystal violet staining-based light microscopic analysis; type: functional, cell-based

T1 sequence (O75365 whole entry): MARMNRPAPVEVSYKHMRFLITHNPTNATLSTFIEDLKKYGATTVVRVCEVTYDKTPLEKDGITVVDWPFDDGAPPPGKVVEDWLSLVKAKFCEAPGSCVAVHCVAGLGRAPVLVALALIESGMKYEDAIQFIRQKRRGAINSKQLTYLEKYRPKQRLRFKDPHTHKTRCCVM

`COc1ccccc1COc1ccccc1/C=C/C=C1\SC(=S)NC1=O` gave an inhibition [1] of 78.8%, an inhibition at 20 µM (DLD-1 [2]) greater than 90% and an IC50 [3] of 0.8 µM. For the same molecule, the inhibition [3] was “Dose-dependent effect”, the inhibition [4] was “Active” and the inhibition [5] was 3%. The IC50 (DLD-1 [6]) was 5 µM, the inhibition (DLD-1 [6]) was “Dose-dependent effect” and the Activity (DLD-1 [7]) was “Active”. It also gave a fold change (FC) [8] greater than 3, an inhibition [9] of 8% and an inhibition [10] of 10%. For the same molecule, the inhibition at 10 µg/mL (DLD-1 [11]) was 98%, the Activity (DLD-1 [12]) was “Active” and the inhibition [13] was 73%. For the same molecule, the Activity (DLD-1 [14]) was “Active”, the inhibition [15] was 1% and the Activity (DU-145) was “inactive”. For the same molecule, the inhibition [16] was 18% and the Activity (MDA-MB-231) was “inactive”.

Work on `O=C1NC(=S)S/C1=C\c1cc(Br)ccc1OCc1ccccc1Br` yielded an inhibition at 20 µM (DLD-1 [2]) greater than 90%, an inhibition [5] of 7% and an IC50 (DLD-1 [6]) of 7 µM. The inhibition (DLD-1 [6]) was “Dose-dependent effect”, the Activity (DLD-1 [7]) was “Active” and the inhibition [9] was 11%. For the same molecule, the inhibition [10] was 30%, the inhibition at 10 µg/mL (DLD-1 [11]) was 95% and the inhibition [15] was 9%. For the same molecule, the Activity (DU-145) was “inactive”, the inhibition [16] was 27% and the Activity (MDA-MB-231) was “inactive”.
